The results in this text go back to the OligoGym collection.

Series [1] concerns the target APOL1. To be noted: ASO.
In series [2] the target is SNHG14. As to conditions: ASO, Human Neuronal Cell.

Values joined by “and” are separate entries in the source; they are usually repeats but may differ in a detail not shown here. Equal values may be shown once. After the bases stand the sugars from the 5' end (letter, count) and the backbone: PS all phosphorothioate, else s phosphorothioate and o phosphodiester by linkage. Methylation of C is not given here. e = 2'-O-(2-methoxyethyl) (MOE); l = locked nucleic acid (LNA); k = constrained ethyl (cEt); d = 2'-deoxy (DNA)

Regarding “CTTTATACCAGTGTCT (sugars kkkddddkekekdddd, PS)”, the target mRNA inhibition in series [1] (A431, 2 µM) was found to be 76%. For GGACATTGAACCTGGG (sugars k4 d9 k3, PS), the target mRNA inhibition in series [1] (A431, 0.0625 µM) is 50%; in series [1] (A431, 0.25 µM), 78%; in series [1] (A431, 1 µM), 86%. For the sequence “TTCTCATGGTACAGGA (sugars kkddddkekekddddd, PS)”, the target mRNA inhibition in series [1] (A431, 2 µM) was found to be 76%.

In the case of “AATTATGGAATTGCAG (sugars kddddkekekeddddd, PS)”, in series [1] (A431, 2 µM), the target mRNA inhibition came to 55%. For the sequence “GTTATATTTGATCCTC (sugars kkddddkdkdkddddd, PS)”, the target mRNA inhibition is 9% in series [1] (A431, 0.0156 µM); 38% in series [1] (A431, 0.0625 µM); 68% in series [1] (A431, 0.25 µM); 89% in series [1] (A431, 1 µM); 93% in series [1] (A431, 2 µM). Consider “AAGATTGGCTCTGGCT (sugars k2 d4 e4 k2 d4, PS)”, for which the target mRNA inhibition in series [1] (A431, 2 µM) was found to be 55%. For the sequence “CATTCAGAATTTCCAC (sugars kkkddddkdkdkdddd, PS)”, the target mRNA inhibition in series [1] (A431, 2 µM) amounted to 88%.

With “ACGCAATGCTGACTTG (sugars k2 d4 e3 k2 d5, PS)”, in series [1] (A431, 2 µM), the target mRNA inhibition was determined as 87%. As for ATTGGCTCAGTGACCC (sugars k4 d9 k3, PS), the target mRNA inhibition in series [1] (A431, 0.25 µM) was 72% and 76%; in series [1] (A431, 1 µM) it was 88% and 86%. With “TTATGAAATTATTGGT (sugars k3 d4 k3 e1 d5, PS)”, the target mRNA inhibition in series [1] (A431, 2 µM) came to 85%. On the same count and under the same terms, the figure for “AGCTTTAAACTCAGGT (sugars kkkddddkekeddddd, PS)” is 85%.

Consider “GCTTTAAACTCAGGTG (sugars kkddddkdkdkddddd, PS)”, for which the target mRNA inhibition in series [1] (A431, 0.0156 µM) stood at 25%; in series [1] (A431, 0.0625 µM), 63%; in series [1] (A431, 0.25 µM), 83%; in series [1] (A431, 1 µM), 94%; in series [1] (A431, 2 µM), 96%.

On to “GAGTATTGTTTTTGTG (sugars kdddddkekekddddd, PS)”, for which, in series [1] (A431, 2 µM), the target mRNA inhibition was 90%. Consider “TACTCTGCAATACACC (sugars l1 d1 l1 d10 l3, PS)”, for which, in series [2] (7.5 µM), the target mRNA inhibition turned out to be 60%. The same measure, in the same setting: to “TACTCTGCAATACACCA (sugars l1 d1 l1 d12 l2, PS)” belongs 55%. On the same count and under the same terms, the figure for “CTGTTTATACCCTTTCCA (sugars l1 d2 l1 d12 l2, PS)” is 56%; for “TACACTTAATTATACTTCCA (sugars ldlddllddddddlddddll, PS)” it is 59%. Consider “CTACAAATTCAATTTACT (sugars l2 d12 l4, PS)”, for which the target mRNA inhibition is 3% in series [2] (0.2 µM) and 10% in series [2] (1 µM). As for “AAAATTATTTATACACCATC (sugars lldddldddddddldlllll, PS)”, the target mRNA inhibition in series [2] (7.5 µM) is 55%. Take “GTATTTACTCTTTACCT (sugars l3 d11 l3, PS)”: the target mRNA inhibition in series [2] (0.2 µM) was 41%; in series [2] (1 µM), 35%.

As for “ACTCTCACTGTAACTTT (sugars l4 d11 l2, PS)”, the figures for the target mRNA inhibition in series [2] (0.2 µM) and in series [2] (1 µM) were 21% and 35%, respectively. Turning to TTGATTCAATTCCCTT (sugars l2 d10 l4, PS), the target mRNA inhibition was found to be 67% in series [2] (0.2 µM) and 72% in series [2] (1 µM). For CCTTCCCTTTGATAAC (sugars l3 d11 l2, PS), in that order: 28% and 55%. For CCTACATCTCATACTT (sugars l2 d12 l2, PS), the target mRNA inhibition in series [2] (0.2 µM) was -3%; in series [2] (1 µM) it was -3%; in series [2] (5 µM) it was 11%.

For TCATATTGAACCAATT (sugars l4 d10 l2, PS), the figures for the target mRNA inhibition in series [2] (0.2 µM) and in series [2] (1 µM) were 59% and 71%, respectively. “AATTTTTTTCTTACTATCTT (sugars ldddldlddddddlldddll, PS)”: the target mRNA inhibition in series [2] (7.5 µM) amounted to 34%. On to “GCACATTCTTTCTATACCT (sugars l1 d3 l1 d12 l2, PS)”, for which the target mRNA inhibition in series [2] (7.5 µM) worked out at 48%. Regarding “TTCCAGCTTATTTACCT (sugars l3 d12 l2, PS)”, the target mRNA inhibition in series [2] (0.2 µM) amounted to 41%; in series [2] (1 µM), 26%. For the sequence “GCACATTCTTTCTATAC (sugars l2 d2 l1 d9 l3, PS)”, the target mRNA inhibition in series [2] (7.5 µM) is 62%.

Take ACTAATGCAATAACCC (sugars l3 d10 l3, PS): the target mRNA inhibition was 45% in series [2] (0.2 µM) and 28% in series [2] (1 µM). In the case of “CAACATTATTAACCACCTTA (sugars llddlddddddddddldlll, PS)”, the target mRNA inhibition in series [2] (7.5 µM) came to 47%. Take “ATATTGATTCAATTCCC (sugars l4 d7 l1 d3 l2, PS)”: the target mRNA inhibition in series [2] (7.5 µM) came to 67%. For the sequence “TTATACCTTTCTTTAACCCT (sugars ldldddddddddddddldll, PS)”, the target mRNA inhibition in series [2] (7.5 µM) came out at 53%.
